Laboratory results published in patent US12054498B2, “Heteroaromatic macrocyclic ether chemotherapeutic agents” (Nuvalent, Inc., priority 2020, dated 2024).

Assays:
[1] = biological target: T1, Ba/F3 cells CD74-ROS1 wild-type (wt) (Homo sapiens, UniProt P08922); experiment: Ba/F3 cell proliferation assay, CD74-ROS1 wild-type; type: cell-based; settings: 72 hours, CellTiter-Glo
T1 construct: fusion of the C-terminus of ROS1 with the N-terminus of various partner proteins; host or cells: Ba/F3 (RIKEN), retroviral pMSCV-puro; the other entry of the earlier key: CD74 (P04233, HLA class II histocompatibility antigen gamma chain)
Procedure, shortened: (§1)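 First, retrovirally infected Ba/F3 cells were made IL-3-independent and selected with puromycin (0.8 μg/mL). Next, cells were plated and rested one day. Then compounds in 3-fold dilutions were added for 72 hours before CellTiter-Glo readout.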

Ba/F3 cells TPM3-TRKA = biological target: T2, Ba/F3 cells TPM3-TRKA (Homo sapiens, UniProt P04629); experiment: Ba/F3 cell proliferation assay, TPM3-TRKA; type: cell-based; settings: 72 hours, CellTiter-Glo, read-out: TPM3-NTRK1-wt IC50
T2 construct: host or cells: Ba/F3 (RIKEN), retroviral pMSCV-puro; the other entry of the earlier key: TPM3 (P06753, Tropomyosin alpha-3 chain)
Procedure, shortened: (§2)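 IL-3-independent Ba/F3 lines stably expressing the fusion kinase (retroviral, puromycin-selected), 1,000 cells/well, treated with 3-fold compound dilutions for 72 h. Viability by CellTiter-Glo luminescence; IC50 from four-parameter logistic fit of percent inhibition.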

TRKA-wt = biological target: T3, TRKA-wt (Homo sapiens, UniProt P04629); experiment: Biochemical kinase assay, TRKA-wt kinase domain; settings: apparent inhibitory constant, Morrison equation; ATP 2 mM in substrate solution; read-out: TRKA-wt Ki^app
T3 construct: or TRKA-wt (1 nM, BPS Bio, 40280) kinase domains in buffer; purchased BPS Bio 40280
Procedure, shortened: (§3)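 Kinase domains (in kinase solution: ROS1-G2032R 0.5 nM, ROS1-wt 0.6 nM, TRKA 1 nM, ALK L1196M/G1202R 3 nM) were mixed with compound and a substrate solution of 2 mM ATP plus 26 μM fluorogenic AQT0101 (ALK, ROS1) or AQT0104 (TRKA) in HEPES pH 7.5/MgCl2. Fluorescence was followed for 120 min at 30° C; Ki^app was obtained by Morrison fit of initial rates.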

[2] = system: TPM3-NTRK1-wt IC50 / primary target IC50 (e.g. CD74-ROS1-wt); experiment: TRKA selectivity in Ba/F3 cells (TRKA potency divided by primary target potency); type: cell-based; settings: for TPM3-NTRK1-wt/CD74-ROS1-G2032R selectivity ratio: TRKA potency / CD74-ROS1-G2032R potency; for TPM3-NTRK1-wt/CD74-ROS1-wt selectivity ratio: TRKA potency / CD74-ROS1-wt potency; for TPM3-NTRK1-wt/EML4-ALK-L1196M-G1202R selectivity ratio: TRKA potency / EML4-ALK-L1196M-G1202R potency; for TPM3-NTRK1-wt/EML4-ALK-wt selectivity ratio: TRKA potency / EML4-ALK-wt potency
Procedure: TRKA selectivity was calculated by dividing a compound's TRKA potency by its primary target potency (e.g. TPM3-NTRK1-wt IC50/CD74-ROS1-wt IC50). Compound selectivity can be interpreted by binning ratio values: bin A for very high selectivity, ratio >30-fold; bin B for high selectivity, ratio >10-fold; bin C for moderate selectivity, ratio ≥1; and bin D for low selectivity, ratio <1. […] (nd=not determined).

[3] = biological target: T4, Ba/F3 cells CD74-ROS1 G2032R (Homo sapiens, UniProt P08922, G2032R); experiment: Ba/F3 cell proliferation assay, CD74-ROS1 G2032R; type: cell-based; settings: 72 hours, CellTiter-Glo
T4 construct: fusion of the C-terminus of ROS1 with the N-terminus of various partner proteins; host or cells: Ba/F3 (RIKEN), retroviral pMSCV-puro; the other entry of the earlier key: CD74 (P04233, HLA class II histocompatibility antigen gamma chain)
Procedure, shortened: as §1

[4] = biological target: T5, Ba/F3 cells EML4-ALK L1196M/G1202R (variant 1) (Homo sapiens, UniProt Q9UM73, G1202R/L1196M); experiment: Ba/F3 cell proliferation assay, EML4-ALK L1196M/G1202R (variant 1); type: cell-based; settings: 72 hours, CellTiter-Glo
T5 construct: echinoderm microtubule-associated protein-like 4 (EML4) gene and the ALK tyrosine kinase domain; host or cells: Ba/F3 (RIKEN), retroviral pMSCV-puro; the other entry of the earlier key: EML4 (Q9HC35, Echinoderm microtubule-associated protein-like 4)
Procedure, shortened: as §2

ROS1-G2032R = biological target: T6, ROS1-G2032R (Homo sapiens, UniProt P08922, G2032R); experiment: Biochemical kinase assay, ROS1-G2032R kinase domain; settings: apparent inhibitory constant, Morrison equation; ATP 2 mM in substrate solution; read-out: ROS1-G2032R Ki^app
T6 construct: purchased SignalChem R14-12BG
Procedure, shortened: (§4)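 Compounds, as 100-fold DMSO stocks, were dispensed first, then substrate mix was added (ATP 2 mM, AQT0101 26 μM, in 50 mM HEPES pH 7.5/10 mM MgCl2). Reactions ran at 30 °C with fluorescence logged every 2 min over 120 min. Apparent inhibition constants came from fitting rates to Morrison's tight-binding equation.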

ALK-wt = biological target: T7, ALK-wt (Homo sapiens, UniProt Q9UM73); experiment: Biochemical kinase assay, ALK-wt kinase domain; settings: apparent inhibitory constant, Morrison equation; ATP 2 mM in substrate solution; read-out: ALK-wt Ki^app
T7 construct: purchased Carna 08-518
Procedure, shortened: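 Apparent Ki values come from fitting initial reaction rates against inhibitor concentration to the Morrison equation. Rates were taken from the linear phase of fluorogenic substrate phosphorylation (AQT0101 for ALK and ROS1, AQT0104 for TRKA; 26 μM in substrate solution with 2 mM ATP), monitored at 485 nm over 120 min at 30° C.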

ROS1-wt = biological target: T8, ROS1-wt (Homo sapiens, UniProt P08922); experiment: Biochemical kinase assay, ROS1-wt kinase domain; settings: apparent inhibitory constant, Morrison equation; ATP 2 mM in substrate solution; read-out: ROS1-wt Ki^app
T8 construct: purchased Carna 08-163
Procedure, shortened: as §4

ALK L1196M/G1202R = biological target: T9, ALK L1196M/G1202R (Homo sapiens, UniProt Q9UM73, G1202R/L1196M); experiment: Biochemical kinase assay, ALK L1196M/G1202R kinase domain; settings: apparent inhibitory constant, Morrison equation; ATP 2 mM in substrate solution; read-out: ALK-L1196M-G1202R Ki^app
T9 construct: purchased SignalChem A19-12NG
Procedure, shortened: as §3

[5] = biological target: T10, Ba/F3 cells EML4-ALK wt (variant 1) (Homo sapiens, UniProt Q9UM73); experiment: Ba/F3 cell proliferation assay, EML4-ALK wt (variant 1); type: cell-based; settings: 72 hours, CellTiter-Glo
T10 construct: echinoderm microtubule-associated protein-like 4 (EML4) gene and the ALK tyrosine kinase domain; host or cells: Ba/F3 (RIKEN), retroviral pMSCV-puro; the other entry of the earlier key: EML4 (Q9HC35, Echinoderm microtubule-associated protein-like 4)
Procedure, shortened: as §2

T3 sequence (P04629 510-781 limits assumed): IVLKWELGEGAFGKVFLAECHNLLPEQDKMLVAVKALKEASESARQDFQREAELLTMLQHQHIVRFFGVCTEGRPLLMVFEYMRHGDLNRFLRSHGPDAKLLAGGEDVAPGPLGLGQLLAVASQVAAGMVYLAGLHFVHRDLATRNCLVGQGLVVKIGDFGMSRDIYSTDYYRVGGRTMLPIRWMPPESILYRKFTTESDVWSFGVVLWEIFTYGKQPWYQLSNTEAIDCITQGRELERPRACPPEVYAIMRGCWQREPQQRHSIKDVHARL
T6 sequence (P08922 1945-2222 G2032R limits assumed): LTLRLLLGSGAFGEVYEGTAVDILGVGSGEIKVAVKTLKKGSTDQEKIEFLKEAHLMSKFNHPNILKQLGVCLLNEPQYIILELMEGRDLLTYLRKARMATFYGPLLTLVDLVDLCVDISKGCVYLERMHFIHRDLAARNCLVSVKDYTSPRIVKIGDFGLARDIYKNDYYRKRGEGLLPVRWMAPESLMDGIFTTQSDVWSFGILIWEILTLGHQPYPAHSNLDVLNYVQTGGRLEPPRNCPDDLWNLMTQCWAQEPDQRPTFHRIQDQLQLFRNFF
T1 sequence (P08922 1883-2347 limits assumed): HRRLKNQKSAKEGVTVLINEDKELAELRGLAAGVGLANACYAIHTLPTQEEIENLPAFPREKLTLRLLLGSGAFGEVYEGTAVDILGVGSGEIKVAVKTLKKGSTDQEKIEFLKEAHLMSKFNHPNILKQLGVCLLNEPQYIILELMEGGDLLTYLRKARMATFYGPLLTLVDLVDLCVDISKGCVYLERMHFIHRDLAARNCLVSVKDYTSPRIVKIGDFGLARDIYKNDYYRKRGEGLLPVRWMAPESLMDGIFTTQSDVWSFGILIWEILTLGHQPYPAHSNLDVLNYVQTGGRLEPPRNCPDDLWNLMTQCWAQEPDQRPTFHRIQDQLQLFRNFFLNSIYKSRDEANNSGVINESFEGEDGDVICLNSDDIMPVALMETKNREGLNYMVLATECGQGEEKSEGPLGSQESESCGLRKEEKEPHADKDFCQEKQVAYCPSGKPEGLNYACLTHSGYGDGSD
T5 sequence (Q9UM73 with tags, fused parts or gaps L1196M/G1202R): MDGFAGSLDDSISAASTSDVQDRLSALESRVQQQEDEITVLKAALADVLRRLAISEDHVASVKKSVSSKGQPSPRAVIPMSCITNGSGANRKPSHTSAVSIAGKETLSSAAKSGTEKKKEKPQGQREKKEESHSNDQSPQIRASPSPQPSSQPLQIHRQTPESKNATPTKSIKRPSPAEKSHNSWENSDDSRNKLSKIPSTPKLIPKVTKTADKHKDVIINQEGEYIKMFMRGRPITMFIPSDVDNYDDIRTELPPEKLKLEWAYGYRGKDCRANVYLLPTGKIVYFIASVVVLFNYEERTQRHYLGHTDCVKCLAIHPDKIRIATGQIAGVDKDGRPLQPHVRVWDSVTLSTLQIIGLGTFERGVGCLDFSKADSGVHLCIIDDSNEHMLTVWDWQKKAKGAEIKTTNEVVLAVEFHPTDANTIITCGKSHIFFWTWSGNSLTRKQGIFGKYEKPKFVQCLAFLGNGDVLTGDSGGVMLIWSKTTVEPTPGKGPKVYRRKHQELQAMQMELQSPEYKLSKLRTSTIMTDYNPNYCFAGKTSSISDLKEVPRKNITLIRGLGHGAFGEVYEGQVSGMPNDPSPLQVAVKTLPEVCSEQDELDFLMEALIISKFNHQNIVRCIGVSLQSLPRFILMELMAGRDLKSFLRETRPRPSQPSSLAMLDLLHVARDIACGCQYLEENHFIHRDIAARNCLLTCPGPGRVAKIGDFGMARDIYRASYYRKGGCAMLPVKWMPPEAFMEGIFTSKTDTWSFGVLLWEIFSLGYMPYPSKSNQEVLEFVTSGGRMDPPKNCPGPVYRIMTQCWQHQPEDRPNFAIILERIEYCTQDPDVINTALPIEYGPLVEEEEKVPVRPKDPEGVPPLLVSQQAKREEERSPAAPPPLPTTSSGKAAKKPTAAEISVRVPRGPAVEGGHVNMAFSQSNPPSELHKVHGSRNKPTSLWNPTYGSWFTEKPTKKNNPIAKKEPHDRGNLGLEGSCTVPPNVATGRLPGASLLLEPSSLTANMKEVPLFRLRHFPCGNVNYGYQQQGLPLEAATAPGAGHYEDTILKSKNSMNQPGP
T2 sequence (P04629 510-796 limits assumed): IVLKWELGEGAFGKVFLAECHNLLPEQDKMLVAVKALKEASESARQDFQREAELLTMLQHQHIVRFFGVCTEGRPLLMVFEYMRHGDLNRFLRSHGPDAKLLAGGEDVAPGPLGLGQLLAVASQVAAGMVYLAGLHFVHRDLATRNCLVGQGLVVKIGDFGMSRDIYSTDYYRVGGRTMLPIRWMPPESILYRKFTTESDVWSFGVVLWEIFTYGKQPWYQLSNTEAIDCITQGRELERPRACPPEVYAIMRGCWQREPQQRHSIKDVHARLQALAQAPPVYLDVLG
T9 sequence (Q9UM73 1116-1392 L1196M/G1202R limits assumed): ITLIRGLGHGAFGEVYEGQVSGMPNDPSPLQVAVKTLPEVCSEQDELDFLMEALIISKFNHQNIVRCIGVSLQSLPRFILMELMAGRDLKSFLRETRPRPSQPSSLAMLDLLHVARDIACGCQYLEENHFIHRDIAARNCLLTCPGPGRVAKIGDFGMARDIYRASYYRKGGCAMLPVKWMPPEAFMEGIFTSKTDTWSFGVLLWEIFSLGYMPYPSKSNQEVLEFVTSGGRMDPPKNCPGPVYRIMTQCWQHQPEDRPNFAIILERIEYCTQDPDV
T8 sequence (P08922 1945-2222 limits assumed): as the sequence (P08922 1945-2222 G2032R limits assumed) above, with R88G counted along it
T7 sequence (Q9UM73 1116-1392 limits assumed): as the sequence (Q9UM73 1116-1392 L1196M/G1202R limits assumed) above, with M81L, R87G counted along it
T10 sequence (Q9UM73 with tags, fused parts or gaps): as the sequence (Q9UM73 with tags, fused parts or gaps L1196M/G1202R) above, with M635L, R641G counted along it
T4 sequence (P08922 1883-2347 G2032R limits assumed): as the sequence (P08922 1883-2347 limits assumed) above, with G150R counted along it

| Compound | IC50 [1] | IC50 (Ba/F3 cells TPM3-TRKA) | Ki (TRKA-wt) | TPM3-NTRK1-wt/CD74-ROS1-G2032R selectivity ratio [2] | TPM3-NTRK1-wt/CD74-ROS1-wt selectivity ratio [2] | TPM3-NTRK1-wt/EML4-ALK-L1196M-G1202R selectivity ratio [2] | TPM3-NTRK1-wt/EML4-ALK-wt selectivity ratio [2] | IC50 [3] | IC50 [4] | Ki (ROS1-G2032R) | Ki (ALK-wt) | Ki (ROS1-wt) | Ki (ALK L1196M/G1202R) | IC50 [5] |
| --- | --- | --- | --- | --- | --- | --- | --- | --- | --- | --- | --- | --- | --- | --- |
| Cc1nc2c(o1)-c1ccc(F)cc1[C@@H](C)Oc1cc(cnc1N)-c1c(cnn1CC1CC1)C2 [Example 76, (19R)-3-(cyclopropylmethyl)-16-fluoro-10,19-dimethyl-11,20-dioxa-3,4,9,23-tetraazapentacyclo[19.3.1,0^2,^6.0^8,^12.0^13,^18]pentacosa-1(24),2(6),4,8(12),9,13,15,17,21(25),22-decaen-22-amine] | 0.1 to 50 nM | > 500 nM | > 500 nM | A (bin A for very high selectivity, ratio >30-fold) | A (bin A for very high selectivity, ratio >30-fold) | A (bin A for very high selectivity, ratio >30-fold) | A (bin A for very high selectivity, ratio >30-fold) | 0.1 to 50 nM | 0.1 to 50 nM | < 50 nM | < 50 nM | < 50 nM | < 50 nM | 0.1 to 50 nM |
| CCn1nnc2c1-c1cnc(N)c(c1)O[C@H](C)c1cc(F)ccc1-c1cc(Cl)nn1C2 [Example 54, (19R)-10-chloro-3-ethyl-16-fluoro-19-methyl-20-oxa-3,4,5,8,9,23-hexaazapentacyclo[19.3.1.0^2,^6.0^8,^12.0^13,^18]pentacosa-1(24),2(6),4,9,11,13,15,17,21(25),22-decaen-22-amine] | 0.1 to 50 nM | 50 to 500 nM | 50 to 500 nM | A (bin A for very high selectivity, ratio >30-fold) | A (bin A for very high selectivity, ratio >30-fold) | D (bin D for low selectivity, ratio <1) | C (bin C for moderate selectivity, ratio ≥1) | 0.1 to 50 nM | 50 to 500 nM | < 50 nM | < 50 nM | < 50 nM | 50 to 500 nM | 0.1 to 50 nM |
| C[C@H]1Oc2cc(cnc2N)-c2c(CC3CC3)nn(C)c2Cn2ncnc2-c2ccc(F)cc21 [Example 99, (19R)-3-(cyclopropylmethyl)-16-fluoro-5,19-dimethyl-20-oxa-4,5,8,9,11,23-hexaazapentacyclo[19.3.1.0^2,^6.0^8,^12.0^13,^18]pentacosa-1(24),2(6),3,9,11,13,15.17,21(25),22-decaen-22-amine] | 0.1 to 50 nM | > 500 nM | > 500 nM | A (bin A for very high selectivity, ratio >30-fold) | A (bin A for very high selectivity, ratio >30-fold) | B (bin B for high selectivity, ratio >10-fold) | A (bin A for very high selectivity, ratio >30-fold) | 0.1 to 50 nM | 50 to 500 nM | < 50 nM | < 50 nM | < 50 nM | < 50 nM | 0.1 to 50 nM |
| C[C@H]1Oc2cc(cnc2N)-c2c(cnn2CC(F)F)Cc2ncc(F)cc2-c2ccc(F)cc21 [Example 73, (20R)-3-(2,2difluoroethyl)-11,17-difluoro-20-methyl-21-oxa-3,4.9,24-tetraazapentacyclo[20.3.1.0^2,^6.0^8,^13.0^13,^19]hexacosa-1(25),2(6),4,8(13),9,11,14,16,18,22(26),23-undecaen-23-amine] | 0.1 to 50 nM | 50 to 500 nM | 50 to 500 nM | A (bin A for very high selectivity, ratio >30-fold) | A (bin A for very high selectivity, ratio >30-fold) | C (bin C for moderate selectivity, ratio ≥1) | A (bin A for very high selectivity, ratio >30-fold) | 0.1 to 50 nM | 50 to 500 nM | < 50 nM | < 50 nM | < 50 nM | < 50 nM | 0.1 to 50 nM |
| C[C@H]1Oc2cc(cnc2N)-c2c(C3CCC3)nnn2Cc2nn(C)nc2-c2ccc(F)cc21 [Example 30, (19R)-3-cyclobutyl-16-fluoro-10,19-dimethyl-20-oxa-4,5,6,9,10,11,23-heptaazapentacyclo[19.3.1.0^2,^6.0^8,^12.0^13,^18]pentacosa-1(24),2,4,8,11,13,15,17,21(25),22-decaen-22-amine] | 0.1 to 50 nM | > 500 nM | > 500 nM | A (bin A for very high selectivity, ratio >30-fold) | A (bin A for very high selectivity, ratio >30-fold) | C (bin C for moderate selectivity, ratio ≥1) | A (bin A for very high selectivity, ratio >30-fold) | 0.1 to 50 nM | 50 to 500 nM | < 50 nM | < 50 nM | < 50 nM | < 50 nM | 0.1 to 50 nM |
| CCn1ncc2c1-c1cnc(N)c(c1)O[C@H](C)c1cc(F)ccc1-n1ncnc1C2 [Example 38, (19R)-3-ethyl-16-fluoro-19-methyl-20-oxa-3,4,9,11,12,23-hexaazapentacyclo[19.3.1.0^2,^6.0^8,^12.0^13,^18]pentacosa-1(24),2(6),4,8,10,13,15,17,21(25),22-decaen-22-amine] | 0.1 to 50 nM | > 500 nM | 50 to 500 nM | A (bin A for very high selectivity, ratio >30-fold) | A (bin A for very high selectivity, ratio >30-fold) | C (bin C for moderate selectivity, ratio ≥1) | A (bin A for very high selectivity, ratio >30-fold) | 0.1 to 50 nM | 50 to 500 nM | < 50 nM | < 50 nM | < 50 nM | < 50 nM | 0.1 to 50 nM |
